Assay [1] relates to DA and 5-HT release in dorsal striatum. The assay can be described thus: In vivo microdialysis of DA and 5-HT release in dorsal striatum, 1BKO mice. The conditions noted are these: local administration. Also on record: species or system 5-HT1B knock out mice. An excerpt:
(§1) Wild-type and 5-HT1B knock out mice were implanted with microdialysis probes according to the methods of DeGroote et al., incorporated herein by reference, with the following modifications. (DeGroote et al., Eur. J. Pharmacol., 439:93-100, 2002). The dialysis probe was placed in the dorsal striatum, at coordinates AP +0.80, ML −1.7 mm from bregma, DV −4.0 mm from the dura, according to the stereotaxic atlas of the mouse brain (Franklin and Paxinos, 1997), and with the toothbar set at 0 mm. Microdialysis experiments were begun 16-20 hours after surgery, using previously described methods, which are incorporated herein by reference (DeGroote et al., 2002). After the start of the dialysis probe perfusion, mice were left undisturbed for three hours. Mice were tested in their home cage during the light period. Samples were collected every 20 minutes in vials containing 7.5 μl acetic acid and stored at −80° C. until HPLC analysis.
Release of DA and 5-HT was measured after peripheral administration of eltoprazine or intrastriatal administration of the selective 5-HT1B receptor agonist CP 93129 dihydrochloride (1,4-Dihydro-3-(1,2,3,6-tetrahydro-4-pyridinyl)-5H-pyrrolo[3,2-b]pyridin-5-one, obtained from Tocris, UK.) Drugs were dissolved in distilled water and further diluted in Ringer solution to the final concentration on the day of the experiment. 5-HT and DA were analyzed by HPLC with electrochemical detection. Samples (25 μl) were injected onto an Inertsil ODS-3 column (3 μM, 2.1×100 mm, Aurora Borealis, The Netherlands) using a Gilson pump and autosampler (Separations, The Netherlands). […] The signal was analyzed using Gynkotek software. […]
Values for the first four consecutive microdialysis samples were averaged to calculate the basal levels of extracellular 5-HT and DA, uncorrected for probe recovery. […] Effects of drug treatment were analyzed by a repeated multivariate analysis of variance (ANOVA) with time as ‘within’ and treatment (or dose) and genotype as ‘between’ factors.

For assay [2] the test system is unchanged. In words: In vivo microdialysis of DA and 5-HT release in dorsal striatum, wild-type mice.
Description: as §1
Release of DA and 5-HT was measured after peripheral administration of eltoprazine or intrastriatal administration of the selective 5-HT1B receptor agonist CP 93129 dihydrochloride (1,4-Dihydro-3-(1,2,3,6-tetrahydro-4-pyridinyl)-5H-pyrrolo[3,2-b]pyridin-5-one, obtained from Tocris, UK.) Drugs were dissolved in distilled water and further diluted in Ringer solution to the final concentration on the day of the experiment. 5-HT and DA were analyzed by HPLC with electrochemical detection. Samples (25 μl) were injected onto an Inertsil ODS-3 column (3 μM, 2.1×100 mm, Aurora Borealis, The Netherlands) using a Gilson pump and autosampler (Separations, The Netherlands). Separation was performed at 40° C. with the electrochemical detector (Intro, ANTEC Leyden, The Netherlands) set at a potential of 600 mV against an Ag/AgCl reference electrode. The signal was analyzed using Gynkotek software. The mobile phase consisted of 5 g/l (NH4)2SO4, 150 mg/l heptane sulphonic acid sodium salt, 0.5 g/l EDTA, 5% methanol, 30 μl/l triethylamine, 30 μl/l acetic acid, pH 4.6. Flow rate was 0.3 ml/min. The detection limit for 5-HT was 0.5 fmol/25 μl sample (signal to noise ratio 2).
Values for the first four consecutive microdialysis samples were averaged to calculate the basal levels of extracellular 5-HT and DA, uncorrected for probe recovery. Student's t-tests were used to compare basal 5-HT and DA values between the two genotypes. Effects of drug treatment were analyzed by a repeated multivariate analysis of variance (ANOVA) with time as ‘within’ and treatment (or dose) and genotype as ‘between’ factors.

In assay [3] the test system is coloboma (Cm) mutant mice. The format is in vivo. An excerpt: (§2) Heterozygote coloboma mice were originally purchased from The Jackson Laboratory (Bar Harbor, Me.) and were bred and maintained in our colony. In the current study, 20 mutant mice and 25 wild-type littermates, all aged 8 to 10 weeks, were used. Animals were divided into 4 groups: mutant/drug-treatment (n=11), mutant/vehicle-control (n=9), wild-type/drug-treatment (n=13), wild-type/vehicle-control (n=12). Age and gender were balanced among groups. All animals were housed as littermates (2-4 mice per cage) and were maintained on ad libitum food and water with a 12 hr light/dark cycle.
(§3) Open-field testing was performed under normal lighting conditions. Mice were brought into the experimental room and allowed at least 1 hr of acclimatization. Thirty minutes prior to testing, animals received an ip. injection of either d-amphetamine (4 mg/kg), eltoprazine (0.5 mg/kg) or saline. The mice were then placed in the activity monitor arenas (27×27×20 cm, Med Associates). Four animals of matching genotype and treatment were tested at one time. Each testing session lasted 40 minutes, after which animals were returned to their home cages. An automated infrared beam array system measured locomotor activity (total distance traveled) and number of center entries (zone crossings).

The subject of the next assay is C3H mice. In words: Peak procedure (30 second reinforcement interval), C3H mice. The assay is classed as in vivo. As to conditions: 0.3 to 3.0 mg/kg i.p. (FIG. 8). The procedure: (§4) The peak procedure is a behavioral model designed to assess an animal's ability to learn an appropriate time period in which to perform a task and a time period in which the animal will be rewarded if the task is performed. The model provides information concerning excitatory and inhibitory components of behavior, as subjects must respond to perform a task when appropriate and stop responding in an “empty trial” when time for reward has elapsed and the reward has not been delivered. The task is sensitive to conditions where there is a failure in inhibitory mechanisms, such as seems to be the case for ADHD (Pliszka et al., Biol. Psychiatry, 48:238-46, 2000).
In the peak procedure, mice are trained to work for food that is delivered at the same time in each trial, but withdrawn in some unreinforced trials. Typically, the response rate increases up to a maximum around the reinforcement time, and then decreases to a low toward the end of the trial. The shape of the response rate indicates whether the animal is sensitive to the time of reinforcement. To be able to perform well in this model, the animals need to be able to learn several tasks. First, the animal must make an association between a response (lever pressing, nose poking or key pecking) and the delivery of reward. Second, the animal must be able to perceive and remember time. Third, the animal must act on its remembered time by starting and then stopping or inhibiting the response. Fourth, the animal must be able to compare the elapsed time in the trials with its remembered time to reinforcement. […] Accuracy is measured by looking at the shape of the response function; therefore, if the response function is sharper and centered on the reinforcement time it supports a conclusion that attentional processes have been heightened.
(§5) Mice were food deprived to 85-90% of their free-feeding body weight by supplementing food earned during experimental sessions with a measured amount after the session had ended. […]

In assay [4] the test system is wild-type mice. In words: Open-field locomotor activity, wild-type littermates. The assay is classed as in vivo.
Description: as §2, §3

In another assay the test system is Cm mutant mice. The conditions noted are these: Hess et al., 1996; cited from earlier work.
Assay [5] relates to 5-HT1B knockout (1BKO) mice. In words: DRL-36s schedule after FR5 conditioning, 5-HT1B knockout mice. The assay is classed as in vivo. As to the method:
(§6) Experiments were conducted in eight identical mouse operant chambers (16×14×13 cm) with stainless steel grid floors (ENV-307M; Med Associates Inc., Georgia, Vt., USA) housed in sound-insulating and ventilated cubicles. Each chamber was equipped with two ultra-sensitive retractable levers, one on each side of a food cup containing photocells to register nose poke behavior and in which a pellet dispenser delivered 20 mg food pellets (Formula A/I, P.J. Noyes Company Inc., Lancaster, N.H., USA). A red house light (50 lux) was located in the center of the wall opposite to the food cup and levers. Stimulus lights were located above each lever and above the food cup. Experimental sessions were controlled and data were recorded by a computer.
(§7) Mice trained on DRL procedure first received operant conditioning. DRL-36s task was adapted from procedures used in rats (O'Donnell and Seiden, supra). Briefly, mice first learned to respond for food under a DRL 6 sec schedule, which means that mice had to wait at least 6 seconds between successive lever presses in order to obtain a food reward. Subsequently the schedule requirement was increased every session in steps of 6 sec to 36 sec (DRL 36 sec). Each session started with the illumination of the house light, the stimulus light above the food cup and the presentation of the left lever for the duration of the session. […] If the mouse presses too soon, no reinforcement is given, the clock is reset to zero, and a new 36-sec waiting period starts. In this way, the DRL-36s schedule task primarily measures waiting strategies which reflect hyperactivity-impulsivity behaviors associated with ADHD. Animals were trained until performances on the DRL 36 sec schedule had stabilized (approximately 25 sessions). All training sessions lasted 60 min and were conducted 5 days per week from Monday-Friday. The total number of lever presses (responses), the total number of reinforcements, and the inter-response times (IRT) are recorded.
Data were analyzed as described elsewhere (Richards et al., J. Exp. Anal. Behav. 60:361-385, 1993; Sabol et al., Psychopharmacology 121:57-65, 1995). The inter-response time (IRT) analysis included three measures for the characterization of DRL 36 sec IRT distributions: peak area, peak location and burst ratio. Only peak area (PkA) and peak location (PkL) are presented. The PkA measure is the area of the obtained IRT distribution of a mouse above the corresponding negative exponential, a computation based on mean of obtained IRT durations excluding the burst component of IRT<3 sec (see Richards et al., supra, for details). […] PkL is calculated as the median of the area of the obtained IRT distribution above the corresponding negative exponential. […]

The next assay relates to C57BL/6J mice. The assay can be described thus: Peak procedure (30 second reinforcement interval), C57BL/6J mice. The format is in vivo. The procedure:
as §4
In the peak procedure, mice are trained to work for food that is delivered at the same time in each trial, but withdrawn in some unreinforced trials. Typically, the response rate increases up to a maximum around the reinforcement time, and then decreases to a low toward the end of the trial. […] Accuracy is measured by looking at the shape of the response function; therefore, if the response function is sharper and centered on the reinforcement time it supports a conclusion that attentional processes have been heightened.
as §5

In assay [6] the test system is wild-type mice. In words: DRL-36s schedule after FR5 conditioning, wild-type mice. The assay is classed as in vivo. As to the method: as §6, §7
Data were analyzed as described elsewhere (Richards et al., J. Exp. Anal. Behav. 60:361-385, 1993; Sabol et al., Psychopharmacology 121:57-65, 1995). The inter-response time (IRT) analysis included three measures for the characterization of DRL 36 sec IRT distributions: peak area, peak location and burst ratio. Only peak area (PkA) and peak location (PkL) are presented. The PkA measure is the area of the obtained IRT distribution of a mouse above the corresponding negative exponential, a computation based on mean of obtained IRT durations excluding the burst component of IRT<3 sec (see Richards et al., supra, for details). […] Thus, decreases in PkA indicate that the mouse's IRT distribution becomes more similar to random performance indicating loss of schedule control. PkL is calculated as the median of the area of the obtained IRT distribution above the corresponding negative exponential.
Mice were conditioned and challenged on a DRL-36s schedule according to the methods of Example 7, with the following modifications. Because 1BKO mice had difficulty learning the DRL-36s schedule following conditioning on an FR1, wild-type and 1BKO mice were conditioned on a fixed rate 5 (FR5) schedule. In FR5, instead of pressing the lever once for a reward, animals have to press 5 times. The rationale for changing the operant conditioning was that by increasing the number of responses necessary for reinforcement, the wild-type mice should have greater difficulty and the 1BKO (which have higher response rates anyway) should have less difficulty getting reinforcements.

We go through four molecules from patent US7557109B2, “Treatment for attention-deficit hyperactivity disorder” (priority 2001, dated 2009).

Each structure is given as a SMILES string.

As for `O=c1ccc2[nH]cc(C3=CCNCC3)c2[nH]1` [CP 93129, 1,4-Dihydro-3-(1,2,3,6-tetrahydro-4-pyridinyl)-5H-pyrrolo[3,2-b]pyridin-5-one, reference compound], in [1] (0.5 μM), the 5-HT release result is on record as “did not decrease 5-HT release” and the “striatal release of DA” value is “similarly unaffected”. The “increase in DA levels” value in assay [1] (50 μM, compared to vehicle) worked out at 527±67%. For the same molecule, in assay [2] (0.5 μM, local administration), the DA release result is “unaffected” and the “time for 5-HT release to return toward basal levels after cessation” value is no more than 40 min. In assay [2] (0.5 μM, local administration through probe), the “5-HT level as compared to vehicle” value is listed as 51±9%. In assay [2] (50 μM, local administration, compared to vehicle), the “increase in DA levels” value turned out to be 525±79%.

With `CCCOc1ccc2[nH]cc(C3=CCNCC3)c2n1` [CP 94253, reference compound], the distance traveled result in [3] (0.5 mg/kg (FIG. 7)) is “did not decrease significantly the distance traveled”. Moreover, in the assay on C3H mice, the “timing in the peak procedure” value is “no effect on timing in the peak procedure”. For the same molecule, in the assay with wild-type mice [4] (0.5 mg/kg (FIG. 7)), the locomotor activity result is recorded as “no effect on the locomotor activity”.

Turning to `C[C@H](N)Cc1ccccc1` [d-amphetamine], the “hyperactivity / locomotor activity in Cm mutant mice” value with Cm mutant mice is recorded as “normalizes the hyperactivity”. Also, the number of reinforcements result is on record as “no significant effect on number of reinforcements” in [5] (2, 4 or 8 mg/kg i.p. (FIG. 12A)); “significantly decreased the number of reinforcements” with wild-type mice [6] (2 and 8 mg/kg i.p. vs vehicle (FIG. 12A)). Further, the response rate result in assay [5] (2, 4 or 8 mg/kg i.p. (FIG. 12B)) is “not statistically significant at any dose”; in the assay with wild-type mice [6] (2 mg/kg i.p.), “significantly increased response rate”; in the assay with wild-type mice [6] (4 mg/kg i.p., wild-type vs 1BKO), “significantly decreased response rate in wild-types compared to 1BKO mice”; in the assay on wild-type mice [6] (8 mg/kg i.p.) it was “decreased response rate”. The total distance traveled amounted to 5966±1938 cm in assay [3] (4 mg/kg i.p., 40 min session, saline 18386±6387 (FIG. 4)) and 11657±2370 cm with wild-type mice [4] (4 mg/kg i.p., 40 min session, saline 3116±338 (FIG. 4)). For the same molecule, the “relative response rate curve in peak trials” value in the assay with C57BL/6J mice (4 mg/kg, 30 min before session (FIG. 1C)) was “does not peak as high as the lower dose and the curve is flatter”; with C57BL/6J mice (1 and 2 mg/kg, 30 min before session, relative to saline (FIGS. 1A, 1B)), “higher peak in the curve followed by a rapid decrease”.

As for `COC(=O)C(c1ccccc1)C1CCCCN1` (stereo not shown) [methylphenidate], in the assay on Cm mutant mice, the “hyperactivity / locomotor activity in Cm mutant mice” value is listed as “increases locomotor activity in a dose-dependent manner”.
